Test results from patent publication US12427187B2, “Glucose-responsive insulin conjugates” (priority 2019, dated 2025).
pEC50, pIC50: −log10 of the molar value. Read-outs that look alike come from different tables or passages of the source.

How the values were obtained:
[1] = target: human IR(B) (Homo sapiens, UniProt P06213); assay: Insulin receptor phosphorylation assay (MSD pIR); type: cell-based; conditions: CHO cells expressing human IR(B), IP = inflection point, read-out: IR Activation IP
human IR(B), sequence (P06213 28-758 limits assumed): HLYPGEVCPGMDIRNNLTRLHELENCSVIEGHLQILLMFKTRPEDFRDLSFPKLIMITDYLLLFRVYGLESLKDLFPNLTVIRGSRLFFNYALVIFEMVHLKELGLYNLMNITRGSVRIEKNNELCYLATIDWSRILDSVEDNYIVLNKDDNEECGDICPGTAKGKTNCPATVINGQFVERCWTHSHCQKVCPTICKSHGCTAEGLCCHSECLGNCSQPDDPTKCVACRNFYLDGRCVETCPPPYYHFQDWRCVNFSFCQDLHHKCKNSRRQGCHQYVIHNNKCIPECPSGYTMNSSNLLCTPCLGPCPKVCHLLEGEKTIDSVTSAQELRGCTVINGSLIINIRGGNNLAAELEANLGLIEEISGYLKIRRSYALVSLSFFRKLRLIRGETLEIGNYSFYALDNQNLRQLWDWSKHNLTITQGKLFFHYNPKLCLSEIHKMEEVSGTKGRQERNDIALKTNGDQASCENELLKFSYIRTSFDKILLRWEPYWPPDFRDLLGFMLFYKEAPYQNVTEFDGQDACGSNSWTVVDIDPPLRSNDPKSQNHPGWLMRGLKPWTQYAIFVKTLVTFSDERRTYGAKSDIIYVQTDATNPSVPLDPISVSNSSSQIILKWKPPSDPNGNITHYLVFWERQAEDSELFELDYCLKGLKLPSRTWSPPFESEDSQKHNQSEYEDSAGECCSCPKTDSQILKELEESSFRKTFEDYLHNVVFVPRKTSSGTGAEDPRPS
human IR(B), sequence (P06213 763-1382 partner limits assumed): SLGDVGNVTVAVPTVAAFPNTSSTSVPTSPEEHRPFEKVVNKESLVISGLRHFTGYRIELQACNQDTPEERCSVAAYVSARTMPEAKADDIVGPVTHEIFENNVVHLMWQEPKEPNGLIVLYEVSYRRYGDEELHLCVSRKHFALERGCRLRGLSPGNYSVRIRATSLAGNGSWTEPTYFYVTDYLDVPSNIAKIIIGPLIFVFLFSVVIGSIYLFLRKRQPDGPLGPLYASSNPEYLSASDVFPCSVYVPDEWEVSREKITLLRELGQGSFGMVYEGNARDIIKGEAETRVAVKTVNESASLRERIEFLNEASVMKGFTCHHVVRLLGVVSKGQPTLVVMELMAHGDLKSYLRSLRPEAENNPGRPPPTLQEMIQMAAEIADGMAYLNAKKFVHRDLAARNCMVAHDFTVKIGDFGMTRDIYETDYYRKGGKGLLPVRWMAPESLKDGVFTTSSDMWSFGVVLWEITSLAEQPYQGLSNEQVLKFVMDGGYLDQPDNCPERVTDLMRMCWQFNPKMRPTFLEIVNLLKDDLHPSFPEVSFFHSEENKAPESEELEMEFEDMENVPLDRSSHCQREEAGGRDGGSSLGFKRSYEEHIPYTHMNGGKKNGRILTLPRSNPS
Protocol: CHO cells stably expressing human IR(B) were in grown in F12 cell media containing 10% FBS and antibiotics (G418, Penicillin/Strepavidin) for at least 8 hr, and then serum starved by switching to F12 media containing 0.5% BSA (insulin-free) in place of FBS for overnight growth. Cells were harvested and frozen in aliquots for use in the MSD pIR assay. Briefly, the frozen cells were plated in either 96-well (40,000 cells/well, Methods A) or 384-well (10,000 cells/well, Method B) clear tissue culture plates and allowed to recover. IOC molecules at the appropriate concentrations were added and the cells incubated for 8 min at 37° C. The media was aspirated and chilled MSD cell lysis buffer was added as per MSD kit instructions. The cells were lysed on ice for 40 min and the lysate then mixed for 10 min at rt. The lysate was transferred to the MSD kit pIR detection plates. The remainder of the assay was carried out following the MSD kit recommended protocol.
The in vitro biological activities towards insulin receptor (IR) were measured by either ligand competition assays or functional phosphorylation assays, as described above, labeled as following: Method A: IR phosphorylation assay based on 96-well; Method B: IR phosphorylation assay based on 384-well with automated liquid dispense; Method C: cell-based IR binding assay; Method D: SPA IR binding assay method E; Method E: MRC1 assay was performed in a 96-well plate; Method F: MRC1 assay was performed in a 384-well plate.

[2] = target: T1, Human macrophage mannose receptor 1 (MRC1) (Homo sapiens, UniProt P22897); assay: MRC1 competition binding assay with Eu-mannosylated-BSA; conditions: IP = inflection point, read-out: MRC1 Binding IP
T1 sequence (P22897 19-1456): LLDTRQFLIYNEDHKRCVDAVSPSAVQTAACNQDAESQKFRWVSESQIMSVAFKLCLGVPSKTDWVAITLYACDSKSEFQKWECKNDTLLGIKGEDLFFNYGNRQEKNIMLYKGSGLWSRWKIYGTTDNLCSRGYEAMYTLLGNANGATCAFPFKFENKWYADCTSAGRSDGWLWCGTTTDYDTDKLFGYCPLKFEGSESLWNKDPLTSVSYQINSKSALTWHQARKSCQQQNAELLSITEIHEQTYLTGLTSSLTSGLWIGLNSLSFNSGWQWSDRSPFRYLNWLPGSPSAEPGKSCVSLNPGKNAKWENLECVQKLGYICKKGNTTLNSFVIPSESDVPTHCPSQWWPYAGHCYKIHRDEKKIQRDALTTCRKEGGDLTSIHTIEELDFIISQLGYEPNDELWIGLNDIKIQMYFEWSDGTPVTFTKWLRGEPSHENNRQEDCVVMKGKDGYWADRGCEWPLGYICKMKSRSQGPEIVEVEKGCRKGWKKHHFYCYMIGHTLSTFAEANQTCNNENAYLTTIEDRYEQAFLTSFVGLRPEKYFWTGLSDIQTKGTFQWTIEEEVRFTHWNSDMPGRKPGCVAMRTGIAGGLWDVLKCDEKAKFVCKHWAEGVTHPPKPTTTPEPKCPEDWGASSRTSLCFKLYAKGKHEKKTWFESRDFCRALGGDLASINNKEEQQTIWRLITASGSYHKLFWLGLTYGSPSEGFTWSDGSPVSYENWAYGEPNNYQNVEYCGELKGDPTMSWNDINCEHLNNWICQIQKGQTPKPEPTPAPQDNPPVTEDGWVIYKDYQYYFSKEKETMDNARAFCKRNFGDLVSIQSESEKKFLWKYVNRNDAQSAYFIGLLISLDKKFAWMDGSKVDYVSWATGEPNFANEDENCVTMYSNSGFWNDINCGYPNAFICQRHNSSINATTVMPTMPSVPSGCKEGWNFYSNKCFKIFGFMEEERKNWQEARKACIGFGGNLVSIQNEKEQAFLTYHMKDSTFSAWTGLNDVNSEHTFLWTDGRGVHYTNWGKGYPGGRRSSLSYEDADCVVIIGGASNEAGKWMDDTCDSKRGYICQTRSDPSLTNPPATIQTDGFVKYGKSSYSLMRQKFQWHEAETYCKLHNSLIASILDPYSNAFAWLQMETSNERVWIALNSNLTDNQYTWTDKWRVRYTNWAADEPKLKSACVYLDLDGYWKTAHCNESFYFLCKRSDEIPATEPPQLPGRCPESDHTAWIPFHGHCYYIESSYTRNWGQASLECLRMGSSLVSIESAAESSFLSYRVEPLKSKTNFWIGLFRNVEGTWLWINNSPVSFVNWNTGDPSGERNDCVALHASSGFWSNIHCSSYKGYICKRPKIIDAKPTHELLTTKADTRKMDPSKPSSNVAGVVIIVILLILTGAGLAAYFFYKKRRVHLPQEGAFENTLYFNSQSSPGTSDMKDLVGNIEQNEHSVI
Protocol: The competition binding assay for Human macrophage mannose receptor 1 (MRC1) utilized a ligand, mannosylated-BSA labeled with the DELFIA Eu-N1-ITC reagent, as reported in the literature. Assay was performed either in a 96-well plate with 100 μL well volume (Method E) or in a 384-well plate with 25 μL well volume (Method F). […] The antibody was incubated in the plate for 1 hr at rt with shaking. The plate was washed with wash buffer 3-5 times followed by addition of MRC1 (2 ng/μl final concentration) in PBS containing 1% stabilizer BSA. The plate was incubated at rt with gentle shaking for 1 hr. The plate was washed three times with wash buffer. The IOC molecules in 12.5 μL (or 50 μL depending on plate format) buffer at appropriate concentrations were added followed by 12.5 μL (or 50 μL) Eu-mannosylated-BSA (0.1 nm final concentration) in 50 mM Tris, pH 7.5 containing 100 mM NaCl, 5 mM CaCl2, 1 mM MgCl2 and 0.2% stabilizer BSA. The plate was incubated for 2 hrs at rt with shaking followed by washing three times with wash buffer.

[3] = target: human insulin receptor type B (IR(B)) (Homo sapiens, UniProt P06213); assay: IR binding assay, scintillation proximity assay on cell membranes (Method D); conditions: Method D: SPA IR binding assay; IP = inflection point
human insulin receptor type B (IR(B)), sequence (P06213 28-758 limits assumed): as the sequence (P06213 28-758 limits assumed) above
human insulin receptor type B (IR(B)), sequence (P06213 763-1382 partner limits assumed): as the sequence (P06213 763-1382 partner limits assumed) above
Protocol: Method D: IR binding assay was run in a scintillation proximity assay (SPA) in 384-well format using cell membranes prepared from CHO cells overexpressing human IR(B) grown in F12 media containing 10% FBS and antibiotics (G418, Penicillin/Strepavidin). Cell membranes were prepared in 50 mM Tris buffer, pH 7.8 containing 5 mM MgCl2. The assay buffer contained 50 mM Tris buffer, pH 7.5, 150 mM NaCl, 1 mM CaCl2, 5mgCl2, 0.1% BSA and protease inhibitors (Complete-Mini-Roche). Cell membranes were added to WGA PVT PEI SPA beads (5 mg/mL final concentration) followed by addition of IOC molecules at appropriate concentrations.

[4] = Method B: IR phosphorylation assay, 384-well with automated liquid dispense

Row | Structure (SMILES) | pEC50 [1, 4] | pIC50 ([2]; Method F: 384-well plate) | pIC50 ([2]; Method E: 96-well plate) | pIC50 [3] | pEC50 ([1]; Method A: IR phosphorylation assay, 96-well)
1 | CC(=O)[C@H](CCCCN)NC(=O)CCCCC(=O)NCC(=O)N[C@@H](CCC(=O)N[C@@H](CCC(=O)NCCCCCC(=O)N(CC(=O)NCCO[C@H]1O[C@H](CO)[C@@H](O)[C@H](O)[C@@H]1O)CC(=O)NCCO[C@@H]1O[C@@H](C)[C@@H](O)[C@@H](O)[C@@H]1O)C(=O)NCCCCCC(=O)N(CC(=O)NCCO[C@H]1O[C@H](CO)[C@@H](O)[C@H](O)[C@@H]1O)CC(=O)NCCO[C@@H]1O[C@@H](C)[C@@H](O)[C@@H](O)[C@@H]1O)C(=O)NCCCCCC(=O)N(CC(=O)NCCO[C@H]1O[C@H](CO)[C@@H](O)[C@H](O)[C@@H]1O)CC(=O)NCCO[C@@H]1O[C@@H](C)[C@@H](O)[C@@H](O)[C@@H]1O [IOC-50] | 9.08 | 7.88 |  |  | 
2 | CC(=O)[C@H](CCCCN)NC(=O)CCCCCNC(=O)[C@H](CCCCNC(=O)CCCCCNC(=O)CN(CC(=O)NCCO[C@H]1O[C@H](CO[C@H]2O[C@H](CO)[C@@H](O)[C@H](O)[C@@H]2O)[C@@H](O)[C@H](O[C@H]2O[C@H](CO)[C@@H](O)[C@H](O)[C@@H]2O)[C@@H]1O)CC(=O)NCCO[C@H]1O[C@H](CO[C@H]2O[C@H](CO)[C@@H](O)[C@H](O)[C@@H]2O)[C@@H](O)[C@H](O[C@H]2O[C@H](CO)[C@@H](O)[C@H](O)[C@@H]2O)[C@@H]1O)NC(=O)[C@H](CCCCNC(=O)CCCCCNC(=O)CN(CC(=O)NCCO[C@H]1O[C@H](CO[C@H]2O[C@H](CO)[C@@H](O)[C@H](O)[C@@H]2O)[C@@H](O)[C@H](O[C@H]2O[C@H](CO)[C@@H](O)[C@H](O)[C@@H]2O)[C@@H]1O)CC(=O)NCCO[C@H]1O[C@H](CO[C@H]2O[C@H](CO)[C@@H](O)[C@H](O)[C@@H]2O)[C@@H](O)[C@H](O[C@H]2O[C@H](CO)[C@@H](O)[C@H](O)[C@@H]2O)[C@@H]1O)NC(=O)CCCCCNC(=O)CN(CC(=O)NCCO[C@H]1O[C@H](CO[C@H]2O[C@H](CO)[C@@H](O)[C@H](O)[C@@H]2O)[C@@H](O)[C@H](O[C@H]2O[C@H](CO)[C@@H](O)[C@H](O)[C@@H]2O)[C@@H]1O)CC(=O)NCCO[C@H]1O[C@H](CO[C@H]2O[C@H](CO)[C@@H](O)[C@H](O)[C@@H]2O)[C@@H](O)[C@H](O[C@H]2O[C@H](CO)[C@@H](O)[C@H](O)[C@@H]2O)[C@@H]1O [IOC-42] | 8.76 | 8.70 |  | 8.71 | 
3 | CC(=O)[C@H](CCCCN)NC(=O)[C@H](CCCCNC(=O)CCCCC(=O)N(CCOC1O[C@H](CO)[C@@H](O)[C@H](O)[C@@H]1O)CCOC1O[C@H](CO)[C@@H](O)[C@H](O)[C@@H]1O)NC(=O)[C@H](CCCNC(=O)CCCCC(=O)N(CCOC1O[C@H](CO)[C@@H](O)[C@H](O)[C@@H]1O)CCOC1O[C@H](CO)[C@@H](O)[C@H](O)[C@@H]1O)NC(=O)CCCCC(=O)N(CCOC1O[C@H](CO)[C@@H](O)[C@H](O)[C@@H]1O)CCOC1O[C@H](CO)[C@@H](O)[C@H](O)[C@@H]1O (stereo partly drawn) [IOC-44] |  |  | 7.50 |  | 8.08

Results, then the compound that gave them:

Row | pEC50 [1, 4] | pIC50 ([2]; Method F: 384-well plate) | pIC50 ([2]; Method E: 96-well plate) | pIC50 [3] | pEC50 ([1]; Method A: IR phosphorylation assay, 96-well) | Structure (SMILES)
4 | 8.93 | 9.06 |  |  |  | CC(=O)[C@H](CCCCN)NC(=O)CCCCCNC(=O)[C@H](CCCCNC(=O)CCCCC(=O)NCCCC[C@@H](C(=O)NCCO[C@@H]1O[C@@H](C)[C@@H](O)[C@@H](O)[C@@H]1O)N(CC(=O)NCCO[C@@H]1O[C@@H](C)[C@@H](O)[C@@H](O)[C@@H]1O)CC(=O)NCCO[C@@H]1O[C@@H](C)[C@@H](O)[C@@H](O)[C@@H]1O)NC(=O)[C@H](CCCCNC(=O)CCCCC(=O)NCCCC[C@@H](C(=O)NCCO[C@@H]1O[C@@H](C)[C@@H](O)[C@@H](O)[C@@H]1O)N(CC(=O)NCCO[C@@H]1O[C@@H](C)[C@@H](O)[C@@H](O)[C@@H]1O)CC(=O)NCCO[C@@H]1O[C@@H](C)[C@@H](O)[C@@H](O)[C@@H]1O)NC(=O)CCCCC(=O)NCCCC[C@@H](C(=O)NCCO[C@@H]1O[C@@H](C)[C@@H](O)[C@@H](O)[C@@H]1O)N(CC(=O)NCCO[C@@H]1O[C@@H](C)[C@@H](O)[C@@H](O)[C@@H]1O)CC(=O)NCCO[C@@H]1O[C@@H](C)[C@@H](O)[C@@H](O)[C@@H]1O [IOC-58]
5 | 8.95 |  | 8.72 |  |  | CC(=O)[C@H](CCCCN)NC(=O)CCCCCNC(=O)[C@H](CCCCNC(=O)CCCCCNC(=O)CN(CC(=O)N(CCOC1O[C@H](CO)[C@@H](O)[C@H](O)[C@@H]1O)CCOC1O[C@H](CO)[C@@H](O)[C@H](O)[C@@H]1O)CC(=O)N(CCOC1O[C@H](CO)[C@@H](O)[C@H](O)[C@@H]1O)CCOC1O[C@H](CO)[C@@H](O)[C@H](O)[C@@H]1O)NC(=O)[C@H](CCCCNC(=O)CCCCCNC(=O)CN(CC(=O)N(CCOC1O[C@H](CO)[C@@H](O)[C@H](O)[C@@H]1O)CCOC1O[C@H](CO)[C@@H](O)[C@H](O)[C@@H]1O)CC(=O)N(CCOC1O[C@H](CO)[C@@H](O)[C@H](O)[C@@H]1O)CCOC1O[C@H](CO)[C@@H](O)[C@H](O)[C@@H]1O)NC(=O)CCCCCNC(=O)CN(CC(=O)N(CCOC1O[C@H](CO)[C@@H](O)[C@H](O)[C@@H]1O)CCOC1O[C@H](CO)[C@@H](O)[C@H](O)[C@@H]1O)CC(=O)N(CCOC1O[C@H](CO)[C@@H](O)[C@H](O)[C@@H]1O)CCOC1O[C@H](CO)[C@@H](O)[C@H](O)[C@@H]1O (stereo partly drawn) [IOC-61]
6 | 8.70 | 8.59 |  |  |  | CC(=O)[C@H](CCCCN)NC(=O)CCCCCNC(=O)[C@H](CCCCNC(=O)CCCCCNC(=O)CN(CC(=O)NCCO[C@@H]1O[C@@H](C)[C@@H](O)[C@@H](O)[C@@H]1O)CC(=O)N(CCOC1C[C@H](CO)[C@@H](O)[C@H](O)[C@@H]1O)CCOC1O[C@H](CO)[C@@H](O)[C@H](O)[C@@H]1O)NC(=O)[C@H](CCCCNC(=O)CCCCCNC(=O)CN(CC(=O)NCCO[C@@H]1O[C@@H](C)[C@@H](O)[C@@H](O)[C@@H]1O)CC(=O)N(CCOC1C[C@H](CO)[C@@H](O)[C@H](O)[C@@H]1O)CCOC1O[C@H](CO)[C@@H](O)[C@H](O)[C@@H]1O)NC(=O)CCCCCNC(=O)CN(CC(=O)NCCO[C@@H]1O[C@@H](C)[C@@H](O)[C@@H](O)[C@@H]1O)CC(=O)N(CCOC1O[C@H](CO)[C@@H](O)[C@H](O)[C@@H]1O)CCOC1O[C@H](CO)[C@@H](O)[C@H](O)[C@@H]1O (stereo partly drawn) [IOC-59]
7 | 8.68 |  | 7.94 |  |  | CC(=O)[C@H](CCCCN)NC(=O)CCCCCNC(=O)[C@H](CCCCNC(=O)CCCC(=O)N[C@@H](CCC(=O)N(CCOC1O[C@H](CO)[C@@H](O)[C@H](O)[C@@H]1O)CCOC1O[C@H](CO)[C@@H](O)[C@H](O)[C@@H]1O)C(=O)N(CCOC1O[C@H](CO)[C@@H](O)[C@H](O)[C@@H]1O)CCOC1O[C@H](CO)[C@@H](O)[C@H](O)[C@@H]1O)NC(=O)[C@H](CCCCNC(=O)CCCC(=O)N[C@@H](CCC(=O)N(CCOC1O[C@H](CO)[C@@H](O)[C@H](O)[C@@H]1O)CCOC1O[C@H](CO)[C@@H](O)[C@H](O)[C@@H]1O)C(=O)N(CCOC1O[C@H](CO)[C@@H](O)[C@H](O)[C@@H]1O)CCOC1O[C@H](CO)[C@@H](O)[C@H](O)[C@@H]1O)NC(=O)CCCC(=O)N[C@@H](CCC(=O)N(CCOC1O[C@H](CO)[C@@H](O)[C@H](O)[C@@H]1O)CCOC1O[C@H](CO)[C@@H](O)[C@H](O)[C@@H]1O)C(=O)N(CCOC1O[C@H](CO)[C@@H](O)[C@H](O)[C@@H]1O)CCOC1O[C@H](CO)[C@@H](O)[C@H](O)[C@@H]1O (stereo partly drawn) [IOC-62]
